This note sets out measurements from ChEMBL document CHEMBL5346971, “Discovery of the First Irreversible HDAC6 Isoform Selective Inhibitor with Potent Anti-Multiple Myeloma Activity” (J Med Chem, 2023).

The term IC50 denotes the point on the concentration scale where inhibition reaches its midpoint. In general, half-life refers to the time needed for the level to fall by half in the phase considered.

Data set [1] concerns the target T1, Class 1 histone deacetylase (Homo sapiens) (UniProt Q13547+O15379+Q92769+Q9BY41). The data set is described as follows: Irreversible inhibition of class 1 HDAC in human A549 cells assessed as acetyl histone H4 level at 0.4 uM incubated for 5 hrs followed by drug wash-out for 1 hr by western blot analysis relative to control. It is filed as cell-based. For orientation: Immunoblotting shows a protein as a band on a membrane.

A short description of data set [2]: Cytotoxicity against human L02 cells assessed as inhibition of cell proliferation incubated for 48 hrs by CCK8 assay. The data set is classed as toxicity, cell-based. For orientation: Tetrazolium dyes change colour on reduction, which living cells bring about.
Data set [3] can be described thus: Toxicity in NCG mouse xenografted with human RPMI-8226 cells assessed as body weight loss at 10 ug administered intratumorally every 2 days. The settings on record: in vivo, other, 48 h, route it(Intratumoral), dose 10 µg. In general terms: Xenograft models place foreign cells or tissue in a host animal.
The target of data set [4] is T1, Class 1 histone deacetylase (Homo sapiens). The data set is described as follows: Irreversible inhibition of class 1 HDAC in human A549 cells assessed as acetyl histone H4 level at 0.4 uM incubated for 5 hrs followed by drug wash-out and measured immediately after drug wash-out by western blot analysis relative to control. The data set is classed as cell-based.
Data set [5] concerns the target T2, Protein deacetylase HDAC6 (Homo sapiens) (UniProt Q9UBN7).
T2 sequence (whole entry): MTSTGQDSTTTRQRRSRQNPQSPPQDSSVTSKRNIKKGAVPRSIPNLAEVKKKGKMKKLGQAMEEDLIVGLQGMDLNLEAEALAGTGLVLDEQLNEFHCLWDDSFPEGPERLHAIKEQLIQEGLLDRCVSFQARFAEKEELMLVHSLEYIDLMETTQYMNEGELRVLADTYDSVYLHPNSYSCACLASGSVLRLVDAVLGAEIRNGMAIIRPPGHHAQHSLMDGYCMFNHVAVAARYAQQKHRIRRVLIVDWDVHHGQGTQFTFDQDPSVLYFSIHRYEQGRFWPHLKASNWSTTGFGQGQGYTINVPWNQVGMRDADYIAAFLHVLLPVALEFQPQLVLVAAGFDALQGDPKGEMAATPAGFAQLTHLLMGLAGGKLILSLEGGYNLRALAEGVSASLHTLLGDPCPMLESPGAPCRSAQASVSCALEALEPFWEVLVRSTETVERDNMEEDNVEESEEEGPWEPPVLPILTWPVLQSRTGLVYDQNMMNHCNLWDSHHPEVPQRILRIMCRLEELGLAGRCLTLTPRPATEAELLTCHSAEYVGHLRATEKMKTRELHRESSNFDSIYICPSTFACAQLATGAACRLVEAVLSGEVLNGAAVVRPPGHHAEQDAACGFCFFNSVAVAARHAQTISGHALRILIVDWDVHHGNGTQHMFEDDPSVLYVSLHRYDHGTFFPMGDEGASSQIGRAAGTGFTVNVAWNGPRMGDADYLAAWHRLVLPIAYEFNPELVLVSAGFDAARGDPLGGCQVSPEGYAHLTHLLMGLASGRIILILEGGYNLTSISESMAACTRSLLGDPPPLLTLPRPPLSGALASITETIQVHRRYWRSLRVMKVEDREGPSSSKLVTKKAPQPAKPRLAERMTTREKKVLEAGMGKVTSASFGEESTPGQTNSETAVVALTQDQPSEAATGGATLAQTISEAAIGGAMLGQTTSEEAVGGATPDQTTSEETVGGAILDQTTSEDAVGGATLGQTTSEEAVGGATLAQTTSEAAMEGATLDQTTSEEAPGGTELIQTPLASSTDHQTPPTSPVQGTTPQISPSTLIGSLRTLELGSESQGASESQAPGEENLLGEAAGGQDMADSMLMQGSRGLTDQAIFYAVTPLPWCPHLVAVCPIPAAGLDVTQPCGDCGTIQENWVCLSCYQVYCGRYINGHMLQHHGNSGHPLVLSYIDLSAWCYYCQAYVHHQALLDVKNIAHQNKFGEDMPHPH
Put plainly: Inhibition of HDAC6 in human A549 cells assessed as acetyl alpha-tubulin level at 2 uM incubated for 5 hrs by western blot analysis relative to control. It is filed as cell-based.

The target in data set [6] is T2, Protein deacetylase HDAC6 (Homo sapiens). Put plainly: Irreversible inhibition of HDAC6 in human A549 cells assessed as acetyl alpha-tubulin level at 0.4 uM incubated for 5 hrs followed by drug wash-out for 6 hrs by western blot analysis relative to control. The data set is classed as cell-based.
Data set [7] can be described thus: Intrinsic clearance in human liver microsomes in presence of NADPH by LC-MS/MS analysis. It is filed as ADME, Microsome. The conditions noted are these: read-out: CLH.
Data set [8] concerns RPMI-8226. Put plainly: Induction of apoptosis in human RPMI-8226 cells assessed as proportion of necrotic cells at 0.1 uM incubated for 24 hrs by AnnexinV-FITC/PI staining based flow cytometry (reference value: 0.49%). It is filed as functional, cell-based.
Data set [9] concerns the target T1, Class 1 histone deacetylase (Homo sapiens). The data set is described as follows: Irreversible inhibition of class 1 HDAC in human A549 cells assessed as acetyl histone H3 level at 0.4 uM incubated for 5 hrs followed by drug wash-out for 6 hrs by western blot analysis relative to control. The data set is classed as cell-based.
Data set [10] can be described thus: Half-life in human liver microsomes in presence of NADPH by LC-MS/MS analysis. The data set is classed as ADME, Microsome.
Data set [11] addresses T1, Class 1 histone deacetylase (Homo sapiens). The data set is described as follows: Irreversible inhibition of class 1 HDAC in human A549 cells assessed as acetyl histone H3 level at 0.4 uM incubated for 5 hrs followed by drug wash-out for 24 hrs by western blot analysis relative to control. The data set is classed as cell-based.
For data set [12], the target named is T3, Polyamine deacetylase HDAC10 (Homo sapiens, UniProt Q969S8).
T3 sequence (Q969S8 whole entry): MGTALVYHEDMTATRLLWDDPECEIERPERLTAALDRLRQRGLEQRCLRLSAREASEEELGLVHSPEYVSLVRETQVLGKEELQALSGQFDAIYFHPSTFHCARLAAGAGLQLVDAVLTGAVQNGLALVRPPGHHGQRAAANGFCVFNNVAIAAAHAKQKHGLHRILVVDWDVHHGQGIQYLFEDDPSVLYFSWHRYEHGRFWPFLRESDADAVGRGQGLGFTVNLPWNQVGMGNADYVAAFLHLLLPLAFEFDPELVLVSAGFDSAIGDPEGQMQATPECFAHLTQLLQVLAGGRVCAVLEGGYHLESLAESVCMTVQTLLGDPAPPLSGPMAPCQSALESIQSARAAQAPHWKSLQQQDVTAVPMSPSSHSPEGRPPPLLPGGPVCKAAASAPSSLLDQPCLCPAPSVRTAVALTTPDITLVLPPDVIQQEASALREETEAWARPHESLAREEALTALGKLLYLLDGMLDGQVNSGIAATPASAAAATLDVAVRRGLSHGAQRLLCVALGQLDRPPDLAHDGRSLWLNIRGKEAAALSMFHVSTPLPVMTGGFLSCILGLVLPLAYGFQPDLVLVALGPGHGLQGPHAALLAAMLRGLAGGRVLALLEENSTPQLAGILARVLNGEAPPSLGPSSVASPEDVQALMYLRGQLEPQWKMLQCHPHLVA
Put plainly: Inhibition of N-terminal FLAG-tagged human recombinant HDAC10 (2 to 631 residues) expressed in baculovirus-infected Sf9 cells using Acetyl-Arg-His-Lys(acety1)-Lys-(acety1)-AMC as substrate peincubated with enzyme for 1 hr followed by substrate addition and measured after 30 mins by fluorescence based analysis.

Data set [13] relates to RPMI-8226. The data set is described as follows: Induction of cell cycle arrest in human RPMI-8226 cells assessed as proportion of cells at G2/M phase at 0.1 uM incubated for 24 hrs by PI staining based flow cytometry (reference value: 19.8%). It is filed as functional.

SMILES strings stand for the structures. Calls of active or inactive are those of the source.

T1 sequence (O15379 whole entry, looked up): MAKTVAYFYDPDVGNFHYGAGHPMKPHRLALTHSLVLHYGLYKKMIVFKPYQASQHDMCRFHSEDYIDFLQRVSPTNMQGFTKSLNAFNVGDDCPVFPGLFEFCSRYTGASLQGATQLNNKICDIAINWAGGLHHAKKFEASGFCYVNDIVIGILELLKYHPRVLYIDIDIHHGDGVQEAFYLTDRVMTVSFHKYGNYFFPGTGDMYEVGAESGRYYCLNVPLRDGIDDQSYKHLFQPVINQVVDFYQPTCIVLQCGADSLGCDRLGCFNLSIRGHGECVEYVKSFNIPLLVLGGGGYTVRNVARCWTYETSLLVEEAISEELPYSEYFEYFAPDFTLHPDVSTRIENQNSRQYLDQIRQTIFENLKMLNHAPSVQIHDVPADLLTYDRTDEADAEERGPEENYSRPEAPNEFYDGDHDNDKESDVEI
T1 sequence (Q13547 whole entry, looked up): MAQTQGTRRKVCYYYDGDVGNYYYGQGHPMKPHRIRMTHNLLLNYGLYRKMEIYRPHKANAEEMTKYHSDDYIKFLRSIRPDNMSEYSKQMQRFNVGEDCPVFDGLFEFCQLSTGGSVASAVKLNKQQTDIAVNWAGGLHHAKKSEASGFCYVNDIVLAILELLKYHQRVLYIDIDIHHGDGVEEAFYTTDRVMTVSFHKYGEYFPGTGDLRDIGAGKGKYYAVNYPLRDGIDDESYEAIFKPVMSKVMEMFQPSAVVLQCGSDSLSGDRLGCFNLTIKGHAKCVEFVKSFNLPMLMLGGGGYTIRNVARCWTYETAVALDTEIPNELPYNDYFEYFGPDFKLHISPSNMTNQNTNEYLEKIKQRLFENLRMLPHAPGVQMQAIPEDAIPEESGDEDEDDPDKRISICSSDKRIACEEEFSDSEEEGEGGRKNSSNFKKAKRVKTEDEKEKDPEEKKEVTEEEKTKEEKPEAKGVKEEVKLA
T1 sequence (Q92769 whole entry, looked up): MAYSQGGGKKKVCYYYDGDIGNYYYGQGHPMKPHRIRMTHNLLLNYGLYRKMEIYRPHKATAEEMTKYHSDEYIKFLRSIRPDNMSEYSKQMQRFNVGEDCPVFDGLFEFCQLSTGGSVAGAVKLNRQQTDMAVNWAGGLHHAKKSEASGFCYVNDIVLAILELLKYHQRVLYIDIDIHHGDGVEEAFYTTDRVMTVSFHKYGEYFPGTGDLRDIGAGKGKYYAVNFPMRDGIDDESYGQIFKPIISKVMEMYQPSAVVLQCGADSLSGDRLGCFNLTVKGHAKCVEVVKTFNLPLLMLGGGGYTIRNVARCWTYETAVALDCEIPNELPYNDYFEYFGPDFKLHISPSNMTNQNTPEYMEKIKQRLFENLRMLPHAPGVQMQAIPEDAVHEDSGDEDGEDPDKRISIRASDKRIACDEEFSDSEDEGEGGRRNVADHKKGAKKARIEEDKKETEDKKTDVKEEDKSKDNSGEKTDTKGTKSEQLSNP
T1 sequence (Q9BY41 whole entry, looked up): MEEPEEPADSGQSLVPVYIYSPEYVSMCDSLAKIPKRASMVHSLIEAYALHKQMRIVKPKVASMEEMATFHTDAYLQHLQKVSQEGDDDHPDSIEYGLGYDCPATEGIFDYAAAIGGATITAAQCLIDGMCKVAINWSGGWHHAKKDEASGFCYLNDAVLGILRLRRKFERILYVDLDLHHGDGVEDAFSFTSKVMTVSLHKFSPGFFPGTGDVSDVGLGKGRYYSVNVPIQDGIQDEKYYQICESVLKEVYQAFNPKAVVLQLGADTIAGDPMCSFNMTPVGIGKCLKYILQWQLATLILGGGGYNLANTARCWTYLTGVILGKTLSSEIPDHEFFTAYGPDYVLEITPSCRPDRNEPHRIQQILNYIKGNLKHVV

Turning to `O=C(NO)c1ccc(COc2no[n+]([O-])c2S(=O)(=O)c2ccccc2)cc1`, the fold change (FC) in data set [1] was 1.2; in data set [4], 0.7; in [5], 4.3; in data set [6] it was 5.1; in data set [9], 1.1; in data set [11], 1.2. In data set [2], the IC50 at 48 h was 8.2 µM. For the same molecule, the Activity entry in data set [3] is reported as “Non-Toxic”; with RPMI-8226 [13], 21.4%. The CLint scaled in data set [7] came to 13.8 L/h/kg. Also, the outcome in the data set with RPMI-8226 [8] was Active. For the same molecule, the half-life in data set [10] was 5.4 min. The IC50 in data set [12] worked out at 1.8 µM.
